# Measurements published in paper PMC11392244, “Characterization of a unique catechol-O-methyltransferase as a molecular drug target in parasitic filarial nematodes” (PLOS Neglected Tropical Diseases, 2024).
# Values joined by “and” are separate entries in the source; they are usually repeats but may differ in a detail not shown here. Equal values may be shown once. Read-outs that look alike come from different tables or passages of the source.
# Key:
# DiMT protein [1] = test: DiMT enzyme activity, kinetics and substrate specificity (MTase-Glo methyltransferase assay); format: biochemical, Dirofilaria immitis; settings: for DiMT catalytic activity for methylation of the substrate: SAM as co-substrate; for Vmax / Km: Michaelis-Menten fit; for Km: other substrate fixed
# D. immitis microfilariae = test: In vitro efficacy against live D. immitis microfilariae (motility, completely immotile %); format: cell-based, Dirofilaria immitis; settings: for Completely Immotile Microfilariae (%): single replicate
# DiMT protein [2] = format: biochemical, Dirofilaria immitis
# [3] = DiMT 90 ng/μL, SAM 40 μM, substrate 300 μM
structure (smiles),measurement,setting,value
OCCS [2-Mercaptoethanol],Mean RLU,DiMT protein [1]; [3],-2592.7 RLU
same,DiMT catalytic activity for methylation of the substrate,DiMT protein [1],did not depict catalytic activity
NCCc1ccc(O)c(O)c1 [Dopamine],Kcat (S^-1),DiMT protein [1]; DiMT 90 ng/μL,241.28 S^-1
same,Mean RLU,DiMT protein [1]; [3],5806.3 RLU
same,Vmax,DiMT protein [1]; DiMT 90 ng/μL,1549.0 nmol/µg/min and 1549.0 ± 21.4 nmol/µg/min
same,Km,DiMT protein [1]; DiMT 90 ng/μL,106 ± 6.2 µM
same,DiMT catalytic activity for methylation of the substrate,DiMT protein [1],readily catalyzed the methylation
same,Mean RLU,"DiMT protein [1]; dopamine 50 uM, SAM (30 µM)",114.3 RLU
same,RLU (single experiments),"DiMT protein [1]; dopamine 50 uM, SAM (30 µM)",106.0 RLU and 141.0 RLU and 96.0 RLU
same,Mean RLU,"DiMT protein [1]; dopamine 100 uM, SAM (30 µM)",391.3 RLU
same,Mean RLU,"DiMT protein [1]; dopamine 200 uM, SAM (30 µM)",1186.3 RLU
same,RLU (single experiments),"DiMT protein [1]; dopamine 200 uM, SAM (30 µM)",958.0 RLU and 965.0 RLU and 1636.0 RLU
same,Mean RLU,"DiMT protein [1]; dopamine 300 uM, SAM (30 µM)",2161.3 RLU
same,RLU (single experiments),"DiMT protein [1]; dopamine 300 uM, SAM (30 µM)",1950.0 RLU and 1857.0 RLU and 2677.0 RLU
same,Mean RLU,"DiMT protein [1]; dopamine 400 uM, SAM (30 µM)",2830.0 RLU
same,RLU (single experiments),"DiMT protein [1]; dopamine 400 uM, SAM (30 µM)",2877.0 RLU and 2606.0 RLU and 3007.0 RLU
same,Mean RLU,"DiMT protein [1]; dopamine 500 uM, SAM (30 µM)",3483.0 RLU
same,RLU (single experiments),"DiMT protein [1]; dopamine 500 uM, SAM (30 µM)",2900.0 RLU and 4023.0 RLU and 3526.0 RLU
NCCc1c[nH]cn1 [Histamine],Mean RLU,DiMT protein [1]; [3],167.3 RLU
same,DiMT catalytic activity for methylation of the substrate,DiMT protein [1],did not depict catalytic activity
CO[C@H]1/C=C/O[C@@]2(C)Oc3c(C)c(O)c4c(O)c(cc(O)c4c3C2=O)NC(=O)/C(C)=C\C=C\[C@H](C)[C@H](O)[C@@H](C)[C@@H](O)[C@@H](C)[C@H](OC(C)=O)[C@@H]1C [NSC133100],Mean completely Immotile (%),"D. immitis microfilariae; 15 µM, 0 h",0%
same,Completely Immotile Microfilariae (%),"D. immitis microfilariae; 15 µM, 0 h",0%
same,Mean completely Immotile (%),"D. immitis microfilariae; 15 µM, 24 h",1%
same,Completely Immotile Microfilariae (%),"D. immitis microfilariae; 15 µM, 24 h",0% and 1% and 2%
same,Mean completely Immotile (%),"D. immitis microfilariae; 15 µM, 48 h",2.67%
same,Completely Immotile Microfilariae (%),"D. immitis microfilariae; 15 µM, 48 h",1% and 3% and 4%
same,Mean completely Immotile (%),"D. immitis microfilariae; 15 µM, 72 h",4.67%
same,Completely Immotile Microfilariae (%),"D. immitis microfilariae; 15 µM, 72 h",3% and 5% and 6%
same,Mean completely Immotile (%),"D. immitis microfilariae; 15 µM, 96 h",6.67%
same,Completely Immotile Microfilariae (%),"D. immitis microfilariae; 15 µM, 96 h",5% and 7% and 8%
same,Mean completely Immotile (%),"D. immitis microfilariae; 15 µM, 120 h",9.67%
same,Completely Immotile Microfilariae (%),"D. immitis microfilariae; 15 µM, 120 h",7% and 10% and 12%
same,Mean completely Immotile (%),"D. immitis microfilariae; 25 µM, 0 h",0%
same,Completely Immotile Microfilariae (%),"D. immitis microfilariae; 25 µM, 0 h",0%
same,Mean completely Immotile (%),"D. immitis microfilariae; 25 µM, 24 h",3%
same,Completely Immotile Microfilariae (%),"D. immitis microfilariae; 25 µM, 24 h",2% and 3% and 4%
same,Mean completely Immotile (%),"D. immitis microfilariae; 25 µM, 48 h",4.67%
same,Completely Immotile Microfilariae (%),"D. immitis microfilariae; 25 µM, 48 h",3% and 5% and 6%
same,Mean completely Immotile (%),"D. immitis microfilariae; 25 µM, 72 h",6.67%
same,Completely Immotile Microfilariae (%),"D. immitis microfilariae; 25 µM, 72 h",5% and 7% and 8%
same,Mean completely Immotile (%),"D. immitis microfilariae; 25 µM, 96 h",9.33%
same,Completely Immotile Microfilariae (%),"D. immitis microfilariae; 25 µM, 96 h",7% and 10% and 11%
same,Mean completely Immotile (%),"D. immitis microfilariae; 25 µM, 120 h",13.67%
same,Completely Immotile Microfilariae (%),"D. immitis microfilariae; 25 µM, 120 h",10% and 16% and 15%
same,Mean completely Immotile (%),"D. immitis microfilariae; 50 µM, 0 h",0%
same,Completely Immotile Microfilariae (%),"D. immitis microfilariae; 50 µM, 0 h",0%
same,Mean completely Immotile (%),"D. immitis microfilariae; 50 µM, 24 h",5%
same,Completely Immotile Microfilariae (%),"D. immitis microfilariae; 50 µM, 24 h",4% and 5% and 6%
same,Mean completely Immotile (%),"D. immitis microfilariae; 50 µM, 48 h",8%
same,Completely Immotile Microfilariae (%),"D. immitis microfilariae; 50 µM, 48 h",7% and 8% and 9%
same,Mean completely Immotile (%),"D. immitis microfilariae; 50 µM, 72 h",10.67%
same,Completely Immotile Microfilariae (%),"D. immitis microfilariae; 50 µM, 72 h",9% and 11% and 12%
same,Mean completely Immotile (%),"D. immitis microfilariae; 50 µM, 96 h",12.67%
same,Completely Immotile Microfilariae (%),"D. immitis microfilariae; 50 µM, 96 h",11% and 13% and 14%
same,Mean completely Immotile (%),"D. immitis microfilariae; 50 µM, 120 h",17%
same,Completely Immotile Microfilariae (%),"D. immitis microfilariae; 50 µM, 120 h",14% and 19% and 18%
same,Mean completely Immotile (%),"D. immitis microfilariae; 75 µM, 0 h",0%
same,Completely Immotile Microfilariae (%),"D. immitis microfilariae; 75 µM, 0 h",0%
same,Mean completely Immotile (%),"D. immitis microfilariae; 75 µM, 24 h",6.33%
same,Completely Immotile Microfilariae (%),"D. immitis microfilariae; 75 µM, 24 h",5% and 6% and 8%
same,Mean completely Immotile (%),"D. immitis microfilariae; 75 µM, 48 h",10%
same,Completely Immotile Microfilariae (%),"D. immitis microfilariae; 75 µM, 48 h",9% and 10% and 11%
same,Mean completely Immotile (%),"D. immitis microfilariae; 75 µM, 72 h",13%
same,Completely Immotile Microfilariae (%),"D. immitis microfilariae; 75 µM, 72 h",12% and 13% and 14%
same,Mean completely Immotile (%),"D. immitis microfilariae; 75 µM, 96 h",15.67%
same,Completely Immotile Microfilariae (%),"D. immitis microfilariae; 75 µM, 96 h",14% and 16% and 17%
same,Mean completely Immotile (%),"D. immitis microfilariae; 75 µM, 120 h",20.67%
same,Completely Immotile Microfilariae (%),"D. immitis microfilariae; 75 µM, 120 h",17% and 23% and 22%
same,effect on microfilariae,D. immitis microfilariae; up to 120 h of culture,insignificant effect
same,Mean Percent Inhibition,DiMT protein [2]; 100 µM,24.8% and 27.0% and 28.5%
same,"Mean Percent Inhibition, Average",DiMT protein [2]; 100 µM,26.8%
same,Mean Percent Inhibition,DiMT protein [2]; 200 µM,32.0% and 34.7% and 35.8%
same,"Mean Percent Inhibition, Average",DiMT protein [2]; 200 µM,34.1%
same,Mean Percent Inhibition,DiMT protein [2]; 300 µM,33.9% and 41.0% and 42.1%
same,"Mean Percent Inhibition, Average",DiMT protein [2]; 300 µM,39.0%
same,Mean Percent Inhibition,DiMT protein [2]; 400 µM,40.4% and 46.0%
same,"Mean Percent Inhibition, Average",DiMT protein [2]; 400 µM,44.1%
same,Mean Percent Inhibition,DiMT protein [2]; 500 µM,51.5% and 54.8% and 55.7%
same,"Mean Percent Inhibition, Average",DiMT protein [2]; 500 µM,54.0%
same,IC50,DiMT protein [2]; read-out: IC 50 (μM ± SEM),496.9 ± 2.7 µM
NCC(O)c1ccc(O)cc1 (stereo not shown) [Octopamine],fold lower DiMT activity than that of dopamine,DiMT protein [1],3 fold
same,Mean RLU,DiMT protein [1]; [3],1996.7 RLU
same,DiMT catalytic activity for methylation of the substrate,DiMT protein [1],modest activity
NCCOP(=O)(O)O [Phosphoethanolamine],Mean RLU,DiMT protein [1]; [3],-1783.7 RLU
same,DiMT catalytic activity for methylation of the substrate,DiMT protein [1],did not depict catalytic activity
"C[S+](CC[C@H](N)C(=O)[O-])C[C@H]1O[C@@H](n2cnc3c(N)ncnc32)[C@H](O)[C@@H]1O (stereo partly drawn) [SAM, S-adenosyl-L-methionine]",Kcat (S^-1),DiMT protein [1]; DiMT 90 ng/μL,42.94 S^-1
same,Vmax,DiMT protein [1]; DiMT 90 ng/μL,275.7 ± 3.9 nmol/µg/min
same,Km,DiMT protein [1]; DiMT 90 ng/μL,104 ± 2.7 µM
same,Mean RLU,"DiMT protein [1]; SAM 10 µM, dopamine 360 µM",756.5 RLU
same,RLU (single experiments),"DiMT protein [1]; SAM 10 µM, dopamine 360 µM",914.5 RLU and 723.5 RLU and 631.5 RLU
same,Mean RLU,"DiMT protein [1]; SAM 20 µM, dopamine 360 µM",2042.5 RLU
same,RLU (single experiments),"DiMT protein [1]; SAM 20 µM, dopamine 360 µM",2199.5 RLU and 2145.5 RLU and 1782.5 RLU
same,Mean RLU,"DiMT protein [1]; SAM 30 µM, dopamine 360 µM",3090.5 RLU
same,RLU (single experiments),"DiMT protein [1]; SAM 30 µM, dopamine 360 µM",2251.5 RLU and 2688.5 RLU and 4331.5 RLU
same,Mean RLU,"DiMT protein [1]; SAM 40 µM, dopamine 360 µM",4397.8 RLU
same,RLU (single experiments),"DiMT protein [1]; SAM 40 µM, dopamine 360 µM",4459.5 RLU and 4406.5 RLU and 4327.5 RLU
same,Mean RLU,"DiMT protein [1]; SAM 50 µM, dopamine 360 µM",5027.5 RLU
same,RLU (single experiments),"DiMT protein [1]; SAM 50 µM, dopamine 360 µM",4688.5 RLU and 5346.5 RLU and 5047.5 RLU
same,Mean RLU,"DiMT protein [1]; SAM 60 µM, dopamine 360 µM",4815.8 RLU
same,RLU (single experiments),"DiMT protein [1]; SAM 60 µM, dopamine 360 µM",4881.5 RLU and 5382.5 RLU and 4183.5 RLU
NCCc1ccc(O)cc1 [Tyramine],fold lower DiMT activity than that of dopamine,DiMT protein [1],6 fold
same,Mean RLU,DiMT protein [1]; [3],1001.7 RLU
same,DiMT catalytic activity for methylation of the substrate,DiMT protein [1],modest activity
